Kd and IC50 data for four molecules are collected here from ChEMBL document CHEMBL1811875, “Inverse virtual screening of antitumor targets: pilot study on a small database of natural bioactive compounds” (J Nat Prod, 2011).

What is called pKd is the Kd on a negative log10 scale, so that one unit is a factor of ten. A high value points to a small Kd. What is called pIC50 is −log10 of the IC50, conventionally taken in molar units.

The target of one test is Wee1-like protein kinase (Homo sapiens, UniProt P30291). Briefly: Binding affinity to weel kinase.
Sequence of Wee1-like protein kinase (P30291 whole entry): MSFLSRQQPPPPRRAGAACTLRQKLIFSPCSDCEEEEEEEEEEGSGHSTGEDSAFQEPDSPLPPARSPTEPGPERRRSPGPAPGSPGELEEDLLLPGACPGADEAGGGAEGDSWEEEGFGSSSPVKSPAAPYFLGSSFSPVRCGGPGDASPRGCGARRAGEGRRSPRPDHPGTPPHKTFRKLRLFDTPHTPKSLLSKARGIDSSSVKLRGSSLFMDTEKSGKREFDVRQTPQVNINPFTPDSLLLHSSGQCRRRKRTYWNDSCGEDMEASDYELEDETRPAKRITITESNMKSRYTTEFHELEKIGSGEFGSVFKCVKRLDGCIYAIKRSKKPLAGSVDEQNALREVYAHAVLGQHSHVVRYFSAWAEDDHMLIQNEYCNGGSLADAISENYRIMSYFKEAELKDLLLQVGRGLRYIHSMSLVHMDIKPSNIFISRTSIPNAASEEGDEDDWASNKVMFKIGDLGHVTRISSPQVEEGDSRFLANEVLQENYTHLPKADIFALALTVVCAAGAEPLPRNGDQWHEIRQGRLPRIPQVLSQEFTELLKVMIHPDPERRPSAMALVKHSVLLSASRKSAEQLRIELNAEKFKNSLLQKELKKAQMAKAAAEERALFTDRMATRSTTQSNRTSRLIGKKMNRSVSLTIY
For the next test, the system named is NCI-H460. Briefly: Cytotoxicity against human H460 cells assessed as stimulation of topoisomerase 1-mediated DNA cleavage. The class given is functional, cell-based.
In another test the target is T1, DNA topoisomerase 1 (Homo sapiens, UniProt P11387).
T1 sequence (P11387 whole entry): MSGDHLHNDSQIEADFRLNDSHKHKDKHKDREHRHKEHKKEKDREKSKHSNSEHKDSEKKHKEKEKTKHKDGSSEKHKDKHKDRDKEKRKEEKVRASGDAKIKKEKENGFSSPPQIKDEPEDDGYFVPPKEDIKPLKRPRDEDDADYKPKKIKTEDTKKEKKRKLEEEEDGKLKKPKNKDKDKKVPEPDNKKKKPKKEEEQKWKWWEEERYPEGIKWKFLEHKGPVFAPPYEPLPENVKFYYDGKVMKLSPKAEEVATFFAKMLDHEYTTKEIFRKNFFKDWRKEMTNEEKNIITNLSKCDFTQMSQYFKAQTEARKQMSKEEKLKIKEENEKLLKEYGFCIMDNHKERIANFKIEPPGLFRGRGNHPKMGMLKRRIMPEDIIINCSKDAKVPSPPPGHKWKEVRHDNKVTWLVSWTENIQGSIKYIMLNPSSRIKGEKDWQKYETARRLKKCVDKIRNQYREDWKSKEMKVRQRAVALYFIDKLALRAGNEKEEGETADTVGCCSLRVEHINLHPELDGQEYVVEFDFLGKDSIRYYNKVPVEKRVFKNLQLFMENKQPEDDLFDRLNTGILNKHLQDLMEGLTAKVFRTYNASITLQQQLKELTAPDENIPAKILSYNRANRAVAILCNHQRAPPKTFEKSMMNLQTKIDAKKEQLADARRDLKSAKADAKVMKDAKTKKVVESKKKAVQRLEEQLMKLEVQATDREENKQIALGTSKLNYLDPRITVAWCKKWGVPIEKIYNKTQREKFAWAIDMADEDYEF
As to the kind of experiment: Binding affinity to topoisomerase 1.

pIC50, pKd: −log10 of the molar value.

On to `Cc1cc(=O)c2c(O)cc3c(c2o1)C(=O)c1c(O)cc(O)cc1C3=O` [TOPOPYRONE C], for which the negative-log Kd (pKd) at Wee1-like protein kinase was 8.87.
Turning to `CC[C@@]1(O)C(=O)OCc2c1cc1n(c2=O)Cc2cc3c(CN(C)C)c(O)ccc3nc2-1` [TOPOTECAN], the pIC50 in the test on NCI-H460 was 5.86.
On to `CC[C@@]1(O)C(=O)OCc2c1cc1n(c2=O)Cc2c-1nc1ccccc1c2/C=N/c1ccccc1C`, for which the pIC50 in the test with NCI-H460 was 6.40. At DNA topoisomerase 1, this molecule showed a pKd of 9.53.
Consider `CC[C@@]1(O)C(=O)OCc2c1cc1n(c2=O)Cc2c-1nc1ccccc1c2/C=N\OCCCO`, for which the pIC50 with NCI-H460 was 6.40. Besides, the pKd at DNA topoisomerase 1 is 8.58.
